Laboratory results published in the supplement of paper PMC13380429.

Columns and labels:
Conditions in all cases: 72 h
Caco-2 [1] = test: cell viability relative to DMSO; higher = less toxic
Calu-3 [2] = test: as above
HepG2 [3] = test: as above
U2OS [4] = test: as above
Vero E6 [5] = test: as above
Caco-2 [6] = test: relative viability EC50 (midpoint between 100% and the lowest measured viability); higher = less toxic
Calu-3 [7] = test: as above
HepG2 [8] = test: as above
U2OS [9] = test: as above
Vero E6 [10] = test: as above
Caco-2 [11] = test: drug sensitivity score (DSS) for viability; higher = more toxic; extreme values may be limits of the assay
Calu-3 [12] = test: as above
HepG2 [13] = test: as above
U2OS [14] = test: as above
Vero E6 [15] = test: as above

Compound	cell viability (Caco-2 [1]; 1 nM) [%]	cell viability (Caco-2 [1]; 10 nM) [%]	cell viability (Caco-2 [1]; 100 nM) [%]	cell viability (Caco-2 [1]; 1000 nM) [%]	cell viability (Caco-2 [1]; 10000 nM) [%]	cell viability (Calu-3 [2]; 1 nM) [%]	cell viability (Calu-3 [2]; 10 nM) [%]	cell viability (Calu-3 [2]; 100 nM) [%]	cell viability (Calu-3 [2]; 1000 nM) [%]	cell viability (Calu-3 [2]; 10000 nM) [%]	cell viability (HepG2 [3]; 1 nM) [%]	cell viability (HepG2 [3]; 10 nM) [%]	cell viability (HepG2 [3]; 100 nM) [%]	cell viability (HepG2 [3]; 1000 nM) [%]	cell viability (HepG2 [3]; 10000 nM) [%]	cell viability (U2OS [4]; 1 nM) [%]	cell viability (U2OS [4]; 10 nM) [%]	cell viability (U2OS [4]; 100 nM) [%]	cell viability (U2OS [4]; 1000 nM) [%]	cell viability (U2OS [4]; 10000 nM) [%]	cell viability (Vero E6 [5]; 1 nM) [%]	cell viability (Vero E6 [5]; 10 nM) [%]	cell viability (Vero E6 [5]; 100 nM) [%]	cell viability (Vero E6 [5]; 1000 nM) [%]	cell viability (Vero E6 [5]; 10000 nM) [%]	relative viability EC50 (Caco-2 [6]) [µM]	relative viability EC50 (Calu-3 [7]) [µM]	relative viability EC50 (HepG2 [8]) [µM]	relative viability EC50 (U2OS [9]) [µM]	relative viability EC50 (Vero E6 [10]) [µM]	drug sensitivity score (Caco-2 [11])	drug sensitivity score (Calu-3 [12])	drug sensitivity score (HepG2 [13])	drug sensitivity score (U2OS [14])	drug sensitivity score (Vero E6 [15])
C=CC(=O)Nc1ccc2ncnc(Nc3ccc(OCc4cccc(F)c4)c(Cl)c3)c2c1 [AST-1306]	93.4	105	83.3	80.6	6.1	98.9	80.4	40.4	32.3	4.3	102	96.7	107	92.8	48.2	91.4	72.7	91.5	61.3	23.4	99.8	97	83.7	51.8	17.7	1.72	0.0782	2.06	0.665	0.575	8.3	22.6	4	9.8	11.3
COc1c(C)cnc(Cn2cnc3c(Cl)nc(N)nc32)c1C [BIIB021]	91	101	92.8	65.8	39.5	102	109	105	49.4	39.4	94	100	60.8	1.5	0.6	99.4	99.4	93.3	27.7	4.4	101	104	103	51.8	36.7	0.746	0.538	0.12	0.495	0.633	7.5	9.3	23.1	14.5	9.1
O=C(O)c1ccc(-c2ccc3cc(O)c(C45CC6CC(CC(C6)C4)C5)cc3c2)cc1 [CD-1530]	90.9	98.9	94.9	84.4	88	95.9	99.6	98.8	98.5	88	108	102	97.4	124	106	98.2	96	97.7	93	86.2	93.4	103	95.8	106	103	> 10	> 10	> 10	> 10	> 10	0.4	0.1	0	0.1	0
N#Cc1cccc(C(=O)Nc2cc(-c3ccccc3)nn2-c2ccccc2)c1 [CDPPB]	93.3	100	108	95.4	102	101	95	101	97.2	100	106	103	97.8	107	104	92.8	97	97.1	93.9	91.6	98.5	96.2	98.6	99.2	103	> 10	> 10	> 10	> 10	> 10	0	0	0	0	0
CCN(CC)CCOc1ccc(Cc2ccccc2)cc1 [DPPE]	100	101	96.7	105	84.6	96	89.7	100	101	96.6	112	98.4	107	91.2	94.4	98.8	104	100	104	96.5	108	103	107	103	96	> 10	> 10	> 10	> 10	> 10	0.1	0	0	0	0
Cc1ccc(=O)n(-c2ccc(O)cc2)c1 [F351]	92.1	92.6	96.7	100	93	90.2	105	96.9	85.2	97.4	105	93.1	108	101	96.9	99.2	97.3	97.2	100	97.4	98.1	100	94.4	99.1	95.4	> 10	> 10	> 10	> 10	> 10	0	0	0	0	0
C[C@@H]1O[C@@H]1P(=O)(O)O [FOSFOMYCIN CALCIUM]	97.3	94.5	94.4	94.1	101	100	104	97.7	97.5	94.9	97.6	101	94.8	111	97.3	103	97.9	103	98.8	102	105	101	98.7	99.2	100	> 10	> 10	> 10	> 10	> 10	0	0	0	0	0
N#CN=C(NCCCCCCOc1ccc(Cl)cc1)Nc1ccncc1 [GMX1778]	104	102	3.2	3.5	3.2	104	102	7.1	4.8	3.9	109	26	19.5	16.3	8.4	102	110	0.1	-0.3	-0.5	98.3	99	101	1.7	1.2	0.0332	0.0356	0.0058	0.0363	0.326	29.3	28.8	36.6	29.7	17.6
CC=C1C(=O)C[C@H]2[C@@H]3CCC4=CC(=O)CC[C@]4(C)[C@H]3CC[C@]12C [GR-235]	95.6	96.2	99.5	90.3	83.4	110	89.9	100	99.8	114	85.2	93.1	95.4	101	91	100	98.4	102	98.2	99.1	110	108	97.8	104	111	> 10	> 10	> 10	> 10	> 10	1	0	0	0	0
O=C(Nc1ccccc1)c1cc([N+](=O)[O-])ccc1Cl [GW-9662]	98	94.1	103	90.1	93.3	93.7	93.6	101	100	96.7	94.9	100	90	102	88.3	106	91.7	101	91.6	96.8	103	106	98.2	99.9	97.7	> 10	> 10	> 10	> 10	> 10	0	0	0	0	0
Oc1ccc2ccccc2c1SSc1c(O)ccc2ccccc12 [IPA-3]	98.9	94.9	91	95.7	92.9	96.3	109	99.8	107	111	104	109	89.2	106	103	93.2	96.6	97.6	98.3	92.9	99.7	101	102	102	95.8	> 10	> 10	> 10	> 10	> 10	0	0	0	0	0
CN([C@@H](Cc1ccc(OS(=O)(=O)c2cccc3cnccc23)cc1)C(=O)N1CCN(c2ccccc2)CC1)S(=O)(=O)c1cccc2cnccc12 [KN-62]	93.4	119	112	89.6	101	105	95.8	98	93.9	91.1	123	110	105	101	95.7	101	100	99.9	95.4	92.3	104	96.6	98.9	96.3	94.8	> 10	> 10	> 10	> 10	> 10	0	0	0	0	0
NC(=O)CC[C@H](N)C(=O)O [L-glutamine]	93.2	90.8	100	96.1	101	91.5	91.7	96.9	95	91.2	92.6	102	104	91.6	100	102	102	94.4	99.1	93	100	100	95	93	92.7	> 10	> 10	> 10	> 10	> 10	0	0	0	0	0
Cc1cccc(C)c1OCC(=O)N[C@@H](Cc1ccccc1)[C@@H](O)C[C@H](Cc1ccccc1)NC(=O)[C@H](C(C)C)N1CCCNC1=O [Lopinavir]	95	101	100	101	83.7	95.4	84.9	92.7	93.9	89.2	101	87.1	103	105	95.4	99.5	95.2	103	94.1	96.5	93.3	100	100	100	104	> 10	> 10	> 10	> 10	> 10	0.3	0	0	0	0
O=C(O)CC[C@H]1CC[C@@](c2cc(F)ccc2F)(S(=O)(=O)c2ccc(Cl)cc2)CC1 [MK-0752]	96.5	106	98.2	99.2	99.5	96.3	96.3	100	101	97.8	100	96.1	98.9	92.6	108	94.9	105	96	102	97.9	96	99.7	94.5	95.5	103	> 10	> 10	> 10	> 10	> 10	0	0	0	0	0
